Test results from US10953011B2, “Methods of treating virally associated cancers with histone deacetylase inhibitors” (priority 2019, dated 2021).

Tests used:
Test in all cases: in vitro HDAC inhibition assay (fluorescence)
Assay type in all cases: biochemical
HDAC1 = HDAC1 (Homo sapiens, UniProt Q13547)
Protocol: (§1) Briefly, all of the compounds are dissolved in DMSO. A series of dilutions of the compounds were prepared with 10% DMSO in HDAC assay buffer and 5 μl of the dilution was added to a 50 μl reaction so that the final concentration of DMSO is 1% in all of reactions. The compounds were pre-incubated in duplicate at RT for 1 hour in a mixture containing HDAC assay buffer, 5 μg BSA, HDAC enzyme (see Table 7) and a the particular HDACi. After 1 hour, the enzymatic reactions were initiated by the addition of HDAC substrate (BPS Bioscience) to a final concentration of 10 μM or 2 μM. The enzymatic reaction proceeded for 30 minutes at 37° C.
(§2) HDAC activity assays were performed in duplicates at each concentration. The fluorescent intensity data were analyzed using the computer software, Graphpad Prism. In the absence of the compound, the fluorescent intensity (Ft) in each data set was defined as 100% activity. In the absence of HDAC, the fluorescent intensity (Fb) in each data set was defined as 0% activity. The percent activity in the presence of each compound was calculated according to the following equation: % activity=(F−Fb)/(Ft−Fb), where F=the fluorescent intensity in the presence of the compound.
(§3) The values of % activity versus a series of compound concentrations were then plotted using non-linear regression analysis of Sigmoidal dose-response curve generated with the equation Y=B+(T−B)/1+10^((Log EC50-X)×Hill Slope), where Y=percent activity, B=minimum percent activity, T=maximum percent activity, X=logarithm of compound and Hill Slope=slope factor or Hill coefficient. The IC50 value was determined by the concentration causing a half-maximal percent activity.

HDAC11 = biological target: T1, HDAC11 (Homo sapiens, UniProt Q96DB2)
T1 sequence (Q96DB2 1-347): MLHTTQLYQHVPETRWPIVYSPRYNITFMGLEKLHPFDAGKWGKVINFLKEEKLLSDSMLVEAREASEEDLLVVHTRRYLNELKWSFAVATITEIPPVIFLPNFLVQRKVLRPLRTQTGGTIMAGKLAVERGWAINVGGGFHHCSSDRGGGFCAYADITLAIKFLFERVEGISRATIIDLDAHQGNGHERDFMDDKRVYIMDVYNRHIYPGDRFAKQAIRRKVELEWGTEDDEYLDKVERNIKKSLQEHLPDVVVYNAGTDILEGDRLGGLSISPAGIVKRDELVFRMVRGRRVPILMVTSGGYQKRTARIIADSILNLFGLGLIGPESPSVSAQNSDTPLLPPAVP
Protocol: as §1, §2, §3

HDAC4 = HDAC4 (Homo sapiens, UniProt P56524); conditions: for inhibition at 100 µM: read-out: Percentage Inhibition HDAC4
Sequence of HDAC4 (P56524 whole entry): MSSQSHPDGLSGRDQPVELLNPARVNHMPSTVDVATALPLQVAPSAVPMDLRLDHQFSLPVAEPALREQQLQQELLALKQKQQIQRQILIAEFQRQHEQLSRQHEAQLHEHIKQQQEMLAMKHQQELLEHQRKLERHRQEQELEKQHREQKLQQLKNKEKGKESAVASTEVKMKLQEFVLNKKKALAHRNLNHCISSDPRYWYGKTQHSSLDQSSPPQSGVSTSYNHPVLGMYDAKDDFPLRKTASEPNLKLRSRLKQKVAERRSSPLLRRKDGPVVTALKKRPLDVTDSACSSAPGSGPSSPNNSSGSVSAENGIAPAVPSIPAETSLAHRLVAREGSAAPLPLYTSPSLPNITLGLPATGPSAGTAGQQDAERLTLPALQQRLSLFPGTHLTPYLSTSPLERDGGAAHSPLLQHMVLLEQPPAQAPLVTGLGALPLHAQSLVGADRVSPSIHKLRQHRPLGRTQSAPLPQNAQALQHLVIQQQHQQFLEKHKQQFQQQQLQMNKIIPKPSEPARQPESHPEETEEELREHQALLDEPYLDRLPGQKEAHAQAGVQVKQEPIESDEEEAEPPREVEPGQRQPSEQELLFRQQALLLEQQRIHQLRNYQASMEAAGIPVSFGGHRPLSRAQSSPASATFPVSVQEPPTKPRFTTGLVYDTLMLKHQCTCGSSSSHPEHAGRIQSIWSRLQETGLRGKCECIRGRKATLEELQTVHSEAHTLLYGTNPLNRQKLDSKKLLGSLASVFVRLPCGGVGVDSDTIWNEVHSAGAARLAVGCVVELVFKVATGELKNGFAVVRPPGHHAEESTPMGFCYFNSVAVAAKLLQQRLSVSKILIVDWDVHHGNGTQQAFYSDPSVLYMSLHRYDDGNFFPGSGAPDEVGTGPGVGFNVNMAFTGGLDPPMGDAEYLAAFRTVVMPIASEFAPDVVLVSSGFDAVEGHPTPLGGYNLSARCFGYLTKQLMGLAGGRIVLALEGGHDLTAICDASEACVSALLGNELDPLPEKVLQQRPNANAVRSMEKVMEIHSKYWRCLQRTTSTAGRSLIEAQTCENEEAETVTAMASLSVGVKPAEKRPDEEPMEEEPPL
Protocol: as §1, §2, §3

HDAC5 = HDAC5 (Homo sapiens, UniProt Q9UQL6)
Sequence of HDAC5 (Q9UQL6 whole entry): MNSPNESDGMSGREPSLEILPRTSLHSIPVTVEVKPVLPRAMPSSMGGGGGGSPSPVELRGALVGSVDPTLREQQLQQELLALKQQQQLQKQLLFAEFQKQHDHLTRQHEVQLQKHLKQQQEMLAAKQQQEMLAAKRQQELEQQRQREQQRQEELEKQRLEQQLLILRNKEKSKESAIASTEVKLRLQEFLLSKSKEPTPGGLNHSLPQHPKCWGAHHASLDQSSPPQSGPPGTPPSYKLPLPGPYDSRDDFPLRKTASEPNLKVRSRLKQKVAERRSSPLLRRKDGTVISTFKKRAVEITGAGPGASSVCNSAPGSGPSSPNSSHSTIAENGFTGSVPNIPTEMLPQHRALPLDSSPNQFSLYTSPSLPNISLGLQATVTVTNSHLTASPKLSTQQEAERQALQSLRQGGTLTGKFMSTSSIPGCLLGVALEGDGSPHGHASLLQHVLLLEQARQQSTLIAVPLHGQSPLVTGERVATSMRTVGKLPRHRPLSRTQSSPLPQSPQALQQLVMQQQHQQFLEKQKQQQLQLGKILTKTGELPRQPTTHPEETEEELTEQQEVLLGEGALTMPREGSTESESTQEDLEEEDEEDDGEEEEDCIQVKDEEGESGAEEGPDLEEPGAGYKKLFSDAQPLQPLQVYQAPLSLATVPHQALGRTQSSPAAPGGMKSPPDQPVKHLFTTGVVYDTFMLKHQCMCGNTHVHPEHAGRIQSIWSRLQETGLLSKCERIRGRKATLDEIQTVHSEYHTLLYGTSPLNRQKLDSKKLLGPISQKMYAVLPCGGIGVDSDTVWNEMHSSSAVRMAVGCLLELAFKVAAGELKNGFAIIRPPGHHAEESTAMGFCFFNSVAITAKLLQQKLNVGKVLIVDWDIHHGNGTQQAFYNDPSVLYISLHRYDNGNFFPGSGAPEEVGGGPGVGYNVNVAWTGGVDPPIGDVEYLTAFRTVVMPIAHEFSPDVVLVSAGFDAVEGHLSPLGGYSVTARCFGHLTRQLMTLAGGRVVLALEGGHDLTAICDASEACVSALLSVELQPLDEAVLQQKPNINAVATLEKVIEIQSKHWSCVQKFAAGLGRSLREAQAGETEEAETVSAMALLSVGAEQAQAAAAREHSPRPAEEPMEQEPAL
Protocol: as §1, §2, §3

HDAC7 = biological target: T2, HDAC7 (Homo sapiens, UniProt Q8WUI4); conditions: for inhibition at 100 µM: read-out: Percentage Inhibition HDAC7
T2 sequence (Q8WUI4 1-952): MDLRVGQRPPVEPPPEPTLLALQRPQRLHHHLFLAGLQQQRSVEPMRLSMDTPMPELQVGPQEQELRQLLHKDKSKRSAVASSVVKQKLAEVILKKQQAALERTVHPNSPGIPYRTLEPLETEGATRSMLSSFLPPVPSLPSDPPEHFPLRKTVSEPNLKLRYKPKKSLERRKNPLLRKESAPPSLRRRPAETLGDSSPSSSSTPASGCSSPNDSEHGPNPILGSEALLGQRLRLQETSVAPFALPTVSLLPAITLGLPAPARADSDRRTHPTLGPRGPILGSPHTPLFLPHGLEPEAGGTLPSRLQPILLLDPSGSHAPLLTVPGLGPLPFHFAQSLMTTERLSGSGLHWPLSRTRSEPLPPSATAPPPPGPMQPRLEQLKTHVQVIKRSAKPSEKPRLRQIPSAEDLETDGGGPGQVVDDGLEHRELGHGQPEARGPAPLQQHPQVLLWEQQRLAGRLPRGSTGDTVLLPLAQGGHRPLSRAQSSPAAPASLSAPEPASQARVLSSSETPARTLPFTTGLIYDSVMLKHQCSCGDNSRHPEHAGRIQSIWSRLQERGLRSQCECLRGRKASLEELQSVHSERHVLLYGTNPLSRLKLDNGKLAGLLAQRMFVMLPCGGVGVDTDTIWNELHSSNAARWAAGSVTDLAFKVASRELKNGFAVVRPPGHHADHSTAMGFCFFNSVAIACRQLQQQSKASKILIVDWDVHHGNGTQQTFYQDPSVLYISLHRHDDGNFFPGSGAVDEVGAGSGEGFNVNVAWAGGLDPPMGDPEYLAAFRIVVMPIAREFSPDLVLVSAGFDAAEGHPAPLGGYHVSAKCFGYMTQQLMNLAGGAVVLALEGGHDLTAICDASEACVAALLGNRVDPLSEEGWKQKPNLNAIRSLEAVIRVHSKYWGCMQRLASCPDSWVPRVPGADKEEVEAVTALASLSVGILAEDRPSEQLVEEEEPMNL
Protocol: as §1, §2, §3

HDAC9 = HDAC9 (Homo sapiens, UniProt Q9UKV0); conditions: for inhibition at 100 µM: read-out: Percentage Inhibition HDAC9
Sequence of HDAC9 (Q9UKV0 whole entry): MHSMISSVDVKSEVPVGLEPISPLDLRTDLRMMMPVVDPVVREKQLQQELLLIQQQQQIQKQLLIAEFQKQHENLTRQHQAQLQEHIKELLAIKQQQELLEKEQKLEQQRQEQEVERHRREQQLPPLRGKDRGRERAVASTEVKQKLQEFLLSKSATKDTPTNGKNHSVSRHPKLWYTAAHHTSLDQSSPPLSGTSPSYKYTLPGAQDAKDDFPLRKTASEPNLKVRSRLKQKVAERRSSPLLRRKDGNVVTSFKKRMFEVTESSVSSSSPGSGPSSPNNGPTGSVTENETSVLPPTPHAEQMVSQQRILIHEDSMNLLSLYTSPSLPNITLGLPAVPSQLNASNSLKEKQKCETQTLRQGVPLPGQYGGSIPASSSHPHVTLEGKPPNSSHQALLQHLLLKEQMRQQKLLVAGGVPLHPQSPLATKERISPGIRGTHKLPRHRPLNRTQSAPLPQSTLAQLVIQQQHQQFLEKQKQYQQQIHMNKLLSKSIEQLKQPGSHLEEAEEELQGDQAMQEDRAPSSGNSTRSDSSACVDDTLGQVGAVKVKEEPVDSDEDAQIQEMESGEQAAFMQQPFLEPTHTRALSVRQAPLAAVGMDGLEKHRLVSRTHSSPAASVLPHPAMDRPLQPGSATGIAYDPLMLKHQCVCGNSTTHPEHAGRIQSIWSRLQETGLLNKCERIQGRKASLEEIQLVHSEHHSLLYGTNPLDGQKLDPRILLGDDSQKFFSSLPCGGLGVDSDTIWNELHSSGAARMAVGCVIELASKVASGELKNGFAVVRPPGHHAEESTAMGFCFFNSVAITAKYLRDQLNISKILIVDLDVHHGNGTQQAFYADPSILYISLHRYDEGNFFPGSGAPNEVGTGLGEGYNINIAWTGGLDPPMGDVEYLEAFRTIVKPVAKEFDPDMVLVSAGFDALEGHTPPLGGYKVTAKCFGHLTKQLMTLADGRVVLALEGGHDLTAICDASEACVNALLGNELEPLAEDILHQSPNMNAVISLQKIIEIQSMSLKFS
Protocol: as §1, §2, §3

Sequence of HDAC1 (Q13547 whole entry): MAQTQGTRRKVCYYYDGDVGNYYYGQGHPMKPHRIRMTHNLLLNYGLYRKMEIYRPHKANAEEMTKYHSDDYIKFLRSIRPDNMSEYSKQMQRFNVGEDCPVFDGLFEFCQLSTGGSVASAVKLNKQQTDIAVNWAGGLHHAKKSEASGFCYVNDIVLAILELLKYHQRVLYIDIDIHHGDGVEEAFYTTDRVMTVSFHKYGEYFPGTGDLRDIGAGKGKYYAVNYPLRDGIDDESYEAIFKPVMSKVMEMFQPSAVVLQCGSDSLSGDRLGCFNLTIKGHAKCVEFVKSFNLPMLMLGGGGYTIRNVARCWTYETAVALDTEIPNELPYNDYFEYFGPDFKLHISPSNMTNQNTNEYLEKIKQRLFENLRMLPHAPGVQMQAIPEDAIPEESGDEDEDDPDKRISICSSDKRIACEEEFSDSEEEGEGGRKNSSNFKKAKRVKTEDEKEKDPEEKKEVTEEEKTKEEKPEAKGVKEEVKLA

C/C=C1\NC(=O)[C@H]2CSSCC/C=C/[C@H](CC(=O)N[C@H](C(C)C)C(=O)N2)OC(=O)[C@H](C(C)C)NC1=O [FK228, romidepsin]
IC50 (HDAC1): 1200 nM | IC50 (HDAC11): > 100 µM | inhibition at 100 µM (HDAC11; read-out: Percentage Inhibition HDAC11): < 17% | IC50 (HDAC4): > 100 µM | inhibition at 100 µM (HDAC4): < 17% | IC50 (HDAC5): > 100 µM | inhibition at 100 µM (HDAC5; read-out: Percentage Inhibition HDAC5): 17% | IC50 (HDAC7): > 100 µM | inhibition at 100 µM (HDAC7): < 17% | IC50 (HDAC9): > 100 µM | inhibition at 100 µM (HDAC9): < 17%

Nc1ccccc1NC(=O)c1ccc(CNC(=O)OCc2cccnc2)cc1 [MS-275, entinostat]
IC50 (HDAC11): > 100 µM

O=C(CCCCCCC(=O)Nc1ccccc1)NO [SAHA, suberanilohydroxamic acid]
inhibition at 100 µM (HDAC4): 34% | inhibition at 100 µM (HDAC7): 27% | inhibition at 100 µM (HDAC9): 37%
